From ChEMBL document CHEMBL1153247, “Synthesis and biological evaluation of substituted 2-phenyl-2H-indazole-7-carboxamides as potent poly(ADP-ribose) polymerase (PARP) inhibitors” (Bioorg Med Chem Lett, 2010)
Where “and” joins values, the source holds several entries; their conditions need not be identical. Equal values may be shown once.

Experiments:
HeLa [1] = experiment: Cytotoxicity against human BRCA1 deficient HeLa cells after 7 days by fluorimetric analysis; type: functional, cell-based; details: 168 h
HeLa [2] = experiment: Cytotoxicity against human HeLa cells expressing BRCA1 after 7 days by fluorimetric analysis; type: functional; details: 168 h
[3] = target: Poly [ADP-ribose] polymerase 1 (Homo sapiens, UniProt P09874); experiment: Inhibition of human PARP1 after 3 hrs using [3H]NAD+ by scintillation proximity assay
Chain of Poly [ADP-ribose] polymerase 1 (P09874 whole entry): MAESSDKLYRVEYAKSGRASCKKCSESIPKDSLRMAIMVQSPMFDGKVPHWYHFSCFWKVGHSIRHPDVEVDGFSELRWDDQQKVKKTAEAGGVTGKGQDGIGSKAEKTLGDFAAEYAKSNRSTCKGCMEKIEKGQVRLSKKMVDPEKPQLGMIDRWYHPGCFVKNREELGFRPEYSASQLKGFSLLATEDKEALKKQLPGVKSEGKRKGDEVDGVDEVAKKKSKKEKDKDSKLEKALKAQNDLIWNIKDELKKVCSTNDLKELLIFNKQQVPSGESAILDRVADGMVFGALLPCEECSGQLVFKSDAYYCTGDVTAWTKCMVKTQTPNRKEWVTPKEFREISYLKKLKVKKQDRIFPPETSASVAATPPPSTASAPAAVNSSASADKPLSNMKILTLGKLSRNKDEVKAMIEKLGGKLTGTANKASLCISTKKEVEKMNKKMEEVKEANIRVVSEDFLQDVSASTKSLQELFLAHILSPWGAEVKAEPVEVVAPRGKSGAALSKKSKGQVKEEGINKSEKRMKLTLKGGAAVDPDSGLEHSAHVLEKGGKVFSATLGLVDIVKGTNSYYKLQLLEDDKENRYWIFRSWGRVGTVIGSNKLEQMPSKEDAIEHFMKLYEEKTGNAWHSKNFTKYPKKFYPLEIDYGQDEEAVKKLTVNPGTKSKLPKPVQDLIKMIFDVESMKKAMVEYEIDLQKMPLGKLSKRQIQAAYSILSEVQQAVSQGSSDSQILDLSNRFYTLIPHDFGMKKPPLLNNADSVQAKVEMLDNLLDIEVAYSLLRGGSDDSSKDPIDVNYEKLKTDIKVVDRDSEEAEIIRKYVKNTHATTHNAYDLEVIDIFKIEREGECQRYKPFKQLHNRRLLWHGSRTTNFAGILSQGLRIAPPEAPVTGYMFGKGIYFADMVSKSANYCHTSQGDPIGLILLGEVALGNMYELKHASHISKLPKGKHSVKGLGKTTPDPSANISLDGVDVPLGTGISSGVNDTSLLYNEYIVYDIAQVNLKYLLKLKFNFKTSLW

[4] = (§1) Oral bioavailability in rat; type: ADME, organism-based; details: in vivo
[5] = Clearance in rat; type: ADME, organism-based; details: in vivo
Rattus norvegicus = experiment: as §1; type: ADME, organism-based; details: in vivo
[6] = Intrinsic clearance in rat microsomes; type: ADME, Microsome

Row | SMILES | IC50 (HeLa [1]) [nM] | CC50 (HeLa [2]) [nM] | IC50 [3] [nM] | bioavailability [4] [%] | clearance [5] [mL/min/kg] | F (Rattus norvegicus) | microsomal CLint [6] [µL/min/mg]
1 | NC(=O)c1cccc2cn(-c3ccc(C(=O)NCc4ccncc4)cc3)nc12 | 3900 | 8700 | 10 | – | – | – | –
2 | CN(C)CCNC(=O)c1ccc(-n2cc3cccc(C(N)=O)c3n2)cc1 | 5400 | 8900 | 10 | – | – | – | –
3 | NC(=O)c1cc(F)cc2cn(-c3ccc(NC(=O)C4CNC4)cc3)nc12 | 310 | 5900 | 5 | 3 | 13 | – | –
4 | CN1CCC[C@H]1C(=O)Nc1ccc(-n2cc3cccc(C(N)=O)c3n2)cc1 | 1200 | 5000 | 17 | – | – | – | –
5 | CNCc1ccc(-n2nc3c(C(N)=O)cccc3c2Cl)cc1 | 5900 | 11000 | 20 | – | – | – | –
6 | NC(=O)c1cccc2cn(-c3cccc(C(=O)N4CCCNCC4)c3)nc12 | > 20000 | > 20000 | 40 | – | – | – | –
7 | CNCc1ccc(-n2cc3c(Cl)ccc(C(N)=O)c3n2)cc1 | 5200 | 4300 | 180 | – | – | – | –
8 | CN1CCC[C@@H](C(=O)Nc2ccc(-n3cc4cccc(C(N)=O)c4n3)cc2)C1 | 820 | 4300 | 30 | 47 | 23 | – | –
9 | NC(=O)c1cccc2cn(-c3ccc(CNC(=O)C4CNC4)cc3)nc12 | > 20000 | > 20000 | 65 | – | – | – | –
10 | CN1CCC(C(=O)Nc2ccc(-n3cc4cccc(C(N)=O)c4n3)cc2)CC1 | 3600 | 8400 | 10 | – | – | – | –
11 | CNCc1ccc(-n2cc3cccc(C(N)=O)c3n2)cc1 | 500 | 5600 | 5 | – | – | – | –
12 | CNCc1ccc(-n2cc3cccc(C(N)=O)c3n2)cc1F | 200 | 3800 | 4 | – | – | – | –
13 | CNCc1ccc(-n2cc3cccc(C(N)=O)c3n2)cc1OC | 1900 | 11000 | 4 | – | – | – | –
14 | CN1CCC[C@H](C(=O)Nc2ccc(-n3cc4cccc(C(N)=O)c4n3)cc2)C1 | 1300 | 6000 | 20 | – | 42 | – | –
15 | NC(=O)c1cc(F)cc2cn(-c3ccc(NC(=O)C4CNC4)c(F)c3)nc12 | 42 | 650 | 4 | – | – | – | –
16 | NC(=O)c1cccc2cn(-c3ccc(NC(=O)CN4CCOCC4)cc3)nc12 | 5000 | > 6000 | 30 | – | – | – | –
17 | CN1CCC[C@@H](C(=O)Nc2ccc(-n3cc4cc(F)cc(C(N)=O)c4n3)cc2F)C1 | 440 | 1800 | 12 | – | – | – | –
18 | CN1CCCC(C(=O)N(C)Cc2ccc(-n3cc4cccc(C(N)=O)c4n3)cc2)C1 (stereo not drawn) | 8600 | > 20000 | 25 | – | – | – | –
19 | CN1CC(C(=O)Nc2ccc(-n3cc4cc(F)cc(C(N)=O)c4n3)cc2)C1 | 720 | 2600 | 6 | – | – | – | –
20 | NC(=O)c1cccc2cn(-c3ccc(C(=O)N4CCCNCC4)cc3)nc12 | > 10000 | > 20000 | 22 | – | – | – | –
21 | CN(C)CC(=O)Nc1ccc(-n2cc3cccc(C(N)=O)c3n2)cc1 | 1500 | 5000 | 15 | – | – | – | –
22 | NC(=O)c1cccc2cn(-c3ccc(C(=O)NCCN4CCOCC4)cc3)nc12 | 7600 | > 20000 | 54 | – | – | – | –
23 | CNCc1ccc(-n2cc3cc(F)cc(C(N)=O)c3n2)cc1 | 94 | 1800 | 1.4 | – | – | – | –

Row | SMILES | IC50 (HeLa [1]) [nM] | CC50 (HeLa [2]) [nM] | IC50 [3] [nM] | bioavailability [4] [%] | clearance [5] [mL/min/kg] | F (Rattus norvegicus) | microsomal CLint [6] [µL/min/mg]
24 | CN1CCCC(C(=O)NCc2ccc(-n3cc4cccc(C(N)=O)c4n3)cc2)C1 (stereo not drawn) | 2300 | 9400 | 22 | – | – | – | –
25 | CNCc1ccc(-n2cc3cc(F)cc(C(N)=O)c3n2)cc1F | 26 | 1500 | 2 | – | – | – | –
26 | NC(=O)c1cccc2cn(-c3ccc(C(=O)Nc4ccncc4)cc3)nc12 | 7300 | > 50000 | 30 | – | – | – | –
27 | CNCc1ccc(-n2cc3c(F)ccc(C(N)=O)c3n2)cc1 | 2500 | 6300 | 8 | – | – | – | –
28 | NC(=O)c1cccc2cn(-c3ccc(NC(=O)CN4CCCC4)cc3)nc12 | 930 | 2800 | 10 | – | – | – | –
29 | CN(Cc1ccc(-n2cc3cccc(C(N)=O)c3n2)cc1)C(=O)C1CNC1 | > 20000 | 20000 | 18 | – | – | – | –
30 | CNCc1ccc(-n2cc3c(O)ccc(C(N)=O)c3n2)cc1 | > 20000 | > 20000 | 540 | – | – | – | –
31 | CNCc1ccc(-n2cc3cccc(C(N)=O)c3n2)cc1C(F)(F)F | 6200 | > 20000 | 5 | – | – | – | –
32 | CN1CC(C(=O)Nc2ccc(-n3cc4cc(F)cc(C(N)=O)c4n3)cc2F)C1 | 480 | 1600 | 6 | – | – | – | –
33 | NC(=O)c1cccc2cn(-c3ccc(C(=O)NCCN4CCCC4)cc3)nc12 | 3300 | 8000 | 20 | – | – | – | –
34 | CNCc1ccc(-n2cc3cccc(C(N)=O)c3n2)cc1O | 3400 | > 10000 | 12 | – | – | – | –
35 | CNCc1ccc(-n2cc3c(F)c(F)cc(C(N)=O)c3n2)cc1 | 2600 | > 5000 | 25 | – | – | – | –
36 | NC(=O)c1cccc2cn(-c3ccccc3)nc12 | – | – | 25 | – | – | – | –
37 | CN1CCCCC1C(=O)Nc1ccc(-n2cc3cccc(C(N)=O)c3n2)cc1 (racemic) | 2600 | 6700 | 46 | – | – | – | –
38 | NC(=O)c1cccc2cn(-c3ccc(NC(=O)C4CNC4)cc3)nc12 | 920 | > 20000 | 10 | – | 13 | 1% and 3% | 1
39 | CNCc1ccc(-n2cc3cc(F)cc(C(N)=O)c3n2)c(F)c1 | 230 | 4200 | 6 | – | – | – | –
40 | NC(=O)c1cccc2cn(-c3ccc(NC(=O)CN4CCCCC4)cc3)nc12 | 1400 | 3000 | 20 | – | – | – | –
41 | CNCc1ccc(-n2cc3c(OC)ccc(C(N)=O)c3n2)cc1 | 3400 | 5500 | > 1000 | – | – | – | –
42 | NC(=O)c1cccc2cn(-c3ccc(C(=O)NCCN4CCCCC4)cc3)nc12 | 3000 | 6400 | 38 | – | – | – | –
43 | CNCc1ccc(-n2cc3cc(Cl)cc(C(N)=O)c3n2)cc1 | 260 | 1000 | 5 | – | – | – | –
44 | CNCc1ccc(-n2cc3ccc(F)c(C(N)=O)c3n2)cc1 | 1600 | > 10000 | 20 | – | – | – | –
45 | CN1CCC(C(=O)Nc2ccc(-n3cc4cc(F)cc(C(N)=O)c4n3)cc2)CC1 | 520 | 2700 | 16 | 66 | 26 | – | –
